From US8791258B2, “Pro-fluorescent probes” (The Regents of the University of California, priority 2008, dated 2014)

Columns and labels:
[1] = Kinetics of H2O2-mediated boronate deprotection; settings: pseudo-first-order conditions, 5 μM dye, 10 mM H2O2
Description: (§1) MitoPY1 features two major visible region absorptions (λabs=489 nm, ε=14,300 M^−1 cm^−1; 510 nm, ε=14,200 M^−1 cm^−1) and a weak emission (λ=540 nm, Φ=0.019, FIG. S1) in 20 mM HEPES, pH 7. […] Kinetics measurements of the H2O2-mediated boronate deprotection were performed under pseudo-first-order conditions (5 μM dye, 10 mM H2O2), giving an observed rate constant of k=2.0(1)×10^−3 s^−1.

[2] = Absorption and emission properties, fluorescence quantum yield; type: physicochemical; settings: 20 mM HEPES, pH 7
Description: (§2) Millipore water was used to prepare all aqueous solutions. All spectroscopic measurements were performed in 20 mM HEPES buffer, pH 7. Absorption spectra were recorded using a Varian Cary 50 spectrophotometer (Walnut Creek, Calif.). Fluorescence spectra were recorded using a Photon Technology International Quanta Master 4 L-format scanning spectrofluorometer (Lawrenceville, N.J.) equipped with an LPS-220B 75-W xenon lamp and power supply, A-1010B lamp housing with integrated igniter, switchable 814 photon-counting/analog photomultiplier detection unit, and MD5020 motor driver. Samples for absorption and fluorescence measurements were contained in 1-cm×1-cm quartz cuvettes (1.4- or 3.5-mL volume, Starna, Atascadero, Calif.).
as §2, with “recorded on” for “recorded using”, “Creek, Calif.) and fluorescence” for “Creek, Calif.). Fluorescence”, “and emission” for “and fluorescence”, “cuvettes (1.5-mL” for “cuvettes (1.4- or 3.5-mL”, “Calif.). Fluorescence quantum yields were determined by reference to fluorescein in 0.1M NaOH (Φ=0.95).” for “Calif.).”

HeLa cells [3] = type: cell-based
Description: 100 μM H2O2 was then added to one of the petri dishes. At 20 minutes, 50 nM MitoTracker Deep Red, 500 nM Lysotracker Red, and 1 μM Hoechst 33342 were added to both dishes. After an additional 20 minutes (40 minute stimulation total), the two coverslips were put in a single, new petri dish filled with fresh DPBS and confocal images were taken (3.2 μsec pixel time, 100% laser power for 514 line, 4.1% laser power for the 633 line, 26% laser power for the 543 line, scanned using 12-bit multi-track scan mode using a constant receiver gain). Shown above are signals from MitoPY1 (a), MitoTracker Deep Red (b), LysoTracker Red (c), an overlay of MitoTracker Deep Red and MitoPY1 (d), Hoechst (e), and a brightfield image (f) of cells not treated with H2O2, as well as signals from MitoPY1 (g), MitoTracker Deep Red (h), LysoTracker Red (i), an overlay of MitoTracker Deep Red and MitoPY1 (j), Hoechst (k), and a brightfield image (l) of cells treated with H2O2. A 20 μm scale bar shown for all images.
HeLa cells incubated with 5 μM MitoPY1 for 60 min at 37° C. and imaged with MitoPY1 (a), MitoTracker Red and Hoechst (overlay, b), and MitoPY1 with MitoTracker Red (overlay, c). HeLa cells incubated with 5 μM MitoPY1 for 60 min at 37° C. with 100 μM H2O2 added for the final 40 min and imaged with MitoPY1 (d), MitoTracker Red and Hoechst (overlay, e), MitoPY1 and MitoTracker Red (overlay, f), and brightfield (g) with 20 μm scale bar. HeLa cells incubated with 5 μM MitoPY1 for 60 min at 37° C. and imaged with MitoPY1 (h), MitoTracker Red and Hoechst (overlay, i), and MitoPY1 with MitoTracker Red (overlay, j). HeLa cells incubated for 24 h with 1 mM paraquat, then washed and incubated with 5 μM MitoPY1 for 60 min at 37° C. and imaged with MitoPY1 (k), MitoTracker Red and Hoechst (overlay, l), MitoPY1 and MitoTracker Red (overlay, m), and brightfield (n) with 20 μm scale bar.
HEK293 cells were cultured in DMEM (Invitrogen) supplemented with 10% fetal bovine serum (FBS, Hyclone) and glutamine (2 mM). CHO.K1 cells were cultured in DMEM with F-12 supplements, glutamax (Invitrogen), and 5% FBS. Cos-7 cells were cultured in DMEM with high glucose, glutamax, 10% FBS, and non-essential amino acids (Invitrogen). HeLa cells were cultured in DMEM with high glucose, glutamax, and 10% FBS. Two days before imaging, cells were passaged and plated on 18-mm glass coverslips. For all experiments, solutions of dyes (from 5 mM stocks in DMSO) were made in DBPS with calcium chloride and magnesium chloride (Sigma). H2O2 was added by bath application to the medium from a 100 mM aqueous stock. For paraquat treatment, HeLa cells were cultured as described above. One day prior to imaging, 1 mM paraquat was added to cells from a 0.5 M stock solution in water. An equal amount of water was added to control cells at the same time. Cells were then incubated at 37° C., 5% CO2. After 24 hours, the media was exchanged for DPBS with 5 μM dye and incubated for 1 hour.
Confocal fluorescence imaging studies were performed with a Zeiss LSM510 NLO Axiovert 200 laser scanning microscope and a 63× Achroplan IR water-immersion objective lens. Excitation of PY-loaded cells at 510 nm was carried out with an Ar laser and emission was collected using a META detector between 527-580 nm. MitoTracker Deep Red was excited with a 633-nm line and emission was collected between 666-698 nm. LysoTracker Red was excited with a 543-nm line and emission was collected between 580-644 nm. Excitation of Hoechst 33342 was carried out using a MaiTai two-photon laser at 780-nm pulses (mode-locked Ti:sapphire laser, Tsunami Spectra Physics) and emission was collected between 452-537 nm. Image analysis was performed in Adobe Photoshop.
MitoPY1 was tested for its ability to both target the mitochondria and respond to H2O2 in living biological systems. […] Again, co-staining with MitoTracker confirms that the dye is retained in the mitochondria and detects localized rises in H2O2 concentrations.

[4] = Turn-on fluorescence responses to a panel of biologically relevant ROS; settings: 20 mM HEPES, pH 7, 25° C.
Description: Bars represent relative responses at 0, 5, 15, 30, 45, and 60 min after addition of each ROS. Data shown are for 10 mM O2- (with 10 μM catalase), 200 μM NO, and 100 μM for all other ROS. Data were acquired at 25° C. in 20 mM HEPES, pH 7, with excitation at λ=510 nm and emission collected between 518 and 750 nm.
as §1

HeLa cells [5] = settings: cited from earlier work

## CC1(C)OB(c2ccc3c(c2)Oc2cc(N4CCN(CCCC[P+](c5ccccc5)(c5ccccc5)c5ccccc5)CC4)ccc2C32OC(=O)c3ccccc32)OC1(C)C.[I-] (centres unmarked) [MitoPY1]
[1]
  observed rate constant k of H2O2-mediated boronate deprotection: 2.0(1)×10^−3 s^−1
[2]; by reference to fluorescein
  fluorescence quantum yield Φ: 0.019
[2]; λabs 489 nm
  extinction coefficient ε at 489 nm: 14,300 M^−1 cm^−1
[2]; λabs 510 nm
  extinction coefficient ε at 510 nm: 14,200 M^−1 cm^−1
HeLa cells [3]
  cell viability during imaging: cells are viable throughout the imaging experiments
HeLa cells [3]; 5 μM probe, 1 h at 37° C.
  fluorescence of probe-loaded cells without H2O2: faint but measurable levels of fluorescence
HeLa cells [3]; 5 μM probe, 50 nM MitoTracker Deep Red, 500 nM LysoTracker Red
  subcellular localization (co-staining with MitoTracker Deep Red, LysoTracker Red): localized to the mitochondria
HeLa cells [3]; 100 μM H2O2
  fluorescence after addition of H2O2 compared to control cells: marked localized increase in fluorescence
HeLa cells [3]; 1 mM paraquat 24 h, then 5 μM probe, compared to control cells
  detection of endogenous mitochondrial H2O2 in paraquat-treated cells: clear increases in mitochondrial-localized H2O2 levels
[4]
  selectivity of turn-on response for H2O2 over other ROS: selective for H2O2 over ROS like superoxide, nitric oxide, and hydroxyl radical

## C[n+]1ccc(-c2cc[n+](C)cc2)cc1 [paraquat]
HeLa cells [5]
  IC50: 1020 µM
